Experiments:
PDE1 = PDE1 inhibition IC50; type: biochemical
[1] = Blood Brain Barrier penetration: plasma and brain concentration; type: in vivo
PDE9 = PDE9 (Homo sapiens (Human), UniProt O76083); type: biochemical
[2] = Stability study of solution in purified water; type: physicochemical; settings: approximately 40 mg/mL in purified water, refrigerated and ambient, 8 days
Method: In another stability study, Compound P3.1 was dissolved at approximately 40 mg/mL of purified water and evaluated for purity over a period of 8 days. Samples were stored at both refrigerated and ambient conditions, and tested at T=0, Day 2, and Day 8.

[3] = Stability study of drug substance in polyethylene/aluminum pouches; type: physicochemical; settings: solid, ambient temperature and 40° C.-45° C. (no humidity control), 3-month period
Method: A stability study has been completed on Compound P3.1. Samples of Compound P3.1 were aliquoted into double-walled polyethylene pouches, which were tied off and then heat-scaled in an aluminum pouch. Samples were stored at ambient temperature and at 40° C.-45° C. (no humidity control) with testing performed over a 3-month period.

Sequence of PDE9 (O76083 whole entry): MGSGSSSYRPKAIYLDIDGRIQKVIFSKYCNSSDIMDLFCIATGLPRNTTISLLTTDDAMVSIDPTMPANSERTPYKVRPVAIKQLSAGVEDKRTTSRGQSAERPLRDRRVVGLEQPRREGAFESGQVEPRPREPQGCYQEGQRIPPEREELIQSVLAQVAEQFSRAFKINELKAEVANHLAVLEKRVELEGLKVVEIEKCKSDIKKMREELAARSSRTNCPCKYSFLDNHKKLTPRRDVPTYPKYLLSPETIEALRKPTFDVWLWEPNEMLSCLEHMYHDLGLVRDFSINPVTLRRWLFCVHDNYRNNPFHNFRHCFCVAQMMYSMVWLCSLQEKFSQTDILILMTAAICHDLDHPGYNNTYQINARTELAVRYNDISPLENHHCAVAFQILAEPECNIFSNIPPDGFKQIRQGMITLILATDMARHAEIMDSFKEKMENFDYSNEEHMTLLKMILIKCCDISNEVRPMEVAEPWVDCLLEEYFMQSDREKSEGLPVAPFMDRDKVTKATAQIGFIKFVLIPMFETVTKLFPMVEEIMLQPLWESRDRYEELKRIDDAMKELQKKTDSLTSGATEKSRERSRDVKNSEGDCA

| SMILES | IC50 (PDE1) [µM] | Brain concentration after 30 minutes ([1]; 30 min) | Brain concentration after 120 minutes ([1]; 120 min) | Plasma concentration after 120 minutes ([1]; plasma, 120 min) | also measured |
| --- | --- | --- | --- | --- | --- |
| C[C@@H]1CN(Cc2ncccn2)C[C@H]1c1nc2c(cnn2C2CCOCC2)c(=O)[nH]1 (relative stereo) | 2.5 |  |  |  |  |
| O=c1[nH]c(CN2CC(Oc3ccncc3)C2)cn2c(-c3ccc(F)cc3)ncc12 [Compound P1] |  |  |  |  | Brain/Plasma ratio after 30 minutes ([1]; 30 min): 0.06; Brain/Plasma ratio after 120 minutes ([1]; 120 min): 0.08 |
| O=c1[nH]c(CN2CC(Oc3cccnc3)C2)cn2c(C3CCOCC3)ncc12 [Compound P2] |  | Below | Below |  |  |
| C[C@@H]1CN(Cc2ncccn2)C[C@H]1c1cn2c(C3CCOCC3)ncc2c(=O)[nH]1 [Compound P3.1, (3S,4S)-6-(4-methyl-1-pyrimidin-2-ylmethyl-pyrrolidin-3-yl)-3-(tetrahydro-pyran-4-yl)-7H-imidazo[1,5-a]pyrazin-8-one] | 3 | 30 min.: 67 ng/mL | 120 min.: 7 ng/mL | 120 min.: 226 ng/mL | IC50 (PDE9): 0.01 µM; Plasma concentration after 30 minutes ([1]; plasma, 30 min): 30 min.: 1620 ng/mL; Change to purity of the compound or appearance of the solution [2]: No significant change; Changes to appearance or purity of the material on storage [3]: no changes to appearance or purity |
| O=c1[nH]c(CN2CC(OCc3ccc(F)cc3)C2)nn2c(C3CCOCC3)ncc12 [Compound P4] |  |  |  | 120 min.: 352 ng/mL |  |
